The test system of this test is MDA-MB-468 breast. Nature of the test: growth of human tumour cells (NCI), 48 h.

Where “and” joins values, the source holds several entries; their conditions need not be identical. Equal values may be shown once.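 Exposure lasted 48 hours, with cells grown in 96-well plates and compounds tested at five concentrations. Here, GI50 denotes the concentration required for 50% inhibition of growth. The concentration for full growth arrest is given as TGI.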

On to `CCn1c2ccccc2c2cc(C(O)c3cccc4ncccc34)ccc21` (centres undefined), for which the GI50 is 0.0326 µM and the TGI was found to be 0.849 µM.

As to `c1ccc(CNc2nc(Nc3ccccc3)nc3ccccc23)cc1`, the GI50 was 1.09 µM and the TGI is 2.56 µM.

In the case of `CC(=O)Oc1ccc(C(c2ccc(OC(C)=O)cc2)c2ccccn2)cc1`, the GI50 is 0.458 µM and 1.34 µM; the TGI was 25 µM and 45.2 µM.

As for `CCN(CC)CCSCCCNc1c2ccc(Cl)cc2nc2ccc(OC)cc12`, the GI50 was 1.5 µM and the TGI is 3.05 µM.

Turning to `CO[C@H]1CC(c2ccc[nH]2)=N[C@]12O[C@@H](C)C[C@@H]1CCCCCCCc3ccc([nH]3)[C@H]12`, the GI50 was 0.444 µM and the TGI was determined as 3.62 µM.

As to `C/C=C(\C)C(=O)N[C@H]1C(O)C[C@]2(C)C3CC[C@@]4(C)C(CC[C@@H]4C(C)N(C)C)C3CCC2C1O` (some centres undefined), the GI50 was 1.7 µM and the TGI was 4.54 µM.

In the case of `O=S(=O)(NCCNc1nccc(-c2c(-c3ccc(F)cc3)nc3sccn23)n1)c1ccccc1`, the GI50 is 4.34 µM and the TGI was over 100 µM.

Turning to `CC(C)COC(=O)c1ccc2[nH]c(O)c(C=Nc3ccc(S(N)(=O)=O)cc3)c2c1`, the GI50 is 1.57 µM and the TGI is 4.36 µM.

As to `COc1ccc(C2=CC(c3ccc(OC)c(OC)c3)c3c(c4ccccc4oc3=O)O2)cc1OC` (centres undefined), the GI50 is 0.475 µM and the TGI turned out to be 8.3 µM.

Regarding `COc1cc(/C=C/C(=O)c2cccnc2Nc2ccc(F)cc2)cc(OC)c1OC`, the GI50 is 1.77 µM and the TGI came out at 5.67 µM.

On to `CCCNc1nc2ccccc2c2c1S(=O)(=O)c1ccc(Cl)cc1C2=O`, for which the GI50 was 0.195 µM and the TGI worked out at 1.47 µM.

With `COc1ccc2nc(NC(=O)c3cccnc3Nc3cc(OC)c(OC)c(OC)c3)sc2c1`, the GI50 is 17.8 µM and the TGI was found to be 62.7 µM.

On to `C=C1c2c(Cl)ccc(O)c2C(O)=C2C(=O)[C@]3(O)C(O)=C(C(N)=O)C(=O)[C@@H](N(C)C)[C@@H]3[C@@H](O)[C@H]12`, for which the GI50 is 0.846 µM and the TGI stood at 2.56 µM.

On to `Cc1nc(Nc2nc3ccccc3o2)nc(-c2cccc([N+](=O)[O-])c2)c1C(=O)Nc1ccc(F)c(Cl)c1`, for which the GI50 is 1.28 µM and the TGI came to 6.44 µM.

Consider `CC(C)CCN[C@@H]1CCc2cc(O)c(N3CC(=O)NS3(=O)=O)c(F)c2C1`, for which the GI50 is over 100 µM and the TGI was over 100 µM.

As for `COc1cc(/C=N/NC(=O)c2cn(C3CC3)c3c(OC)c(N4CC5CCCNC5C4)c(F)cc3c2=O)ccc1O` (centres undefined), the GI50 is 1.63 µM and the TGI was determined as 3.11 µM.

Consider `COc1cc(Cl)cc(-c2nn(-c3cccc(NC(=O)Nc4ccc(Cl)c(C(F)(F)F)c4)c3)cc2-c2ccncc2)c1`, for which the GI50 is 0.99 µM and the TGI was 5.47 µM.

As to `OCCN1CCN(CC/C=C2\c3ccccc3Sc3ccc(Cl)cc32)CC1`, the GI50 was 1.54 µM and 1.82 µM; the TGI was 3.18 µM and 4.05 µM.

Consider `CCOC(=O)/C(C#N)=C/c1ccc2c(c1)CC1(C2)Cc2cc(CC)c(C(C)O)cc2C1` (centres undefined), for which the GI50 was 12.4 µM and the TGI came to 36.8 µM.

Take `CN(C)CCN1C(=O)c2cccc3cccc(c23)C1=O`: the GI50 is 10.3 µM and the TGI was over 25 µM.

Turning to `CCN(CC)CCOc1ccc(C(=O)/C=C\c2ccc(Cl)cc2Cl)cc1`, the GI50 was 5.05 µM and the TGI was 19 µM.

Take `Cn1c(=O)c(Oc2ccc(F)cc2F)cc2cnc(NCCS(C)(=O)=O)nc21`: the GI50 is over 25 µM and the TGI was over 25 µM.

As for `COc1ccc(OC)c(Nc2nc(-c3c(C)nc4sccn34)cs2)c1`, the GI50 is 1.7 µM and the TGI is 75.3 µM.

`COc1ccc(Nc2cc(C)nc(N3CCN(c4ccnc5cc(Cl)ccc45)CC3)n2)cc1`: the GI50 is 1.77 µM and the TGI was determined as 5.57 µM.

Regarding `COc1ccc(-c2nn(-c3cccc(NC(=O)c4ccc(N5CCOCC5)c(C(F)(F)F)c4)c3)cc2-c2ccncc2)cc1Cl`, the GI50 is 6.88 µM and the TGI is over 50 µM.

Take `O=C(Nc1ccc(I)cc1F)c1cc(Cl)ccc1O`: the GI50 was 0.361 µM and the TGI stood at 1.73 µM.

For the compound `CCO/C=N/C1=C(C#N)C(c2ccc(OC)cc2)c2sc3c(C)cccc3c2O1` (centres undefined), the GI50 was 0.276 µM and the TGI worked out at 5.69 µM.

For the compound `C#Cc1nc(C2=C(C)C(OC(C)=O)/C(=N/OC(C)=O)C2)cs1` (centres undefined), the GI50 is 2.07 µM and the TGI worked out at 8.72 µM.

Turning to `Cc1cccc2c(N)c3ccccc3nc12`, the GI50 is 1.44 µM and the TGI turned out to be 4.63 µM.

For `Oc1ccc(Cl)cc1CNc1nc2ccccc2[nH]1`, the GI50 is 5.72 µM and the TGI was 21.9 µM.

As to `O=C1NCCS(=O)(=O)/C1=C\C=C\c1cccc(C(F)(F)F)c1`, the GI50 was 1.56 µM and the TGI amounted to 4.53 µM.

With `Cn1cnc([N+](=O)[O-])c1Sc1ncn[nH]1`, the GI50 was 21 µM and the TGI is over 100 µM.

These data come from PubChem BioAssay (NCI).
